Assay results taken from patent US9410152B2, “Use of microrna molecules to influence skin pigmentation” (CHANEL PARFUMS BEAUTE, priority 2011, dated 2016).
“Also recorded” adds a separate entry of the source.

Experiments:
Type in all cases: cell-based, human
mRNA MITF-M = experiment: qRT-PCR mRNA expression of MITF-M; settings: MNT-1 cells, 50 nM mimetic, day 12, relative to cel-miR-239b, ΔΔCt
Protocol: (§1) 4×10^5 MNT-1 cells were seeded per well in a 6-well plate (#353046, Falcon) on day-1. On day 0, the cells were transfected with 50 nM of mimetic of the miRNAs (hsa-mir-137 # C-300604-07-005, hsa-mir-7 # C-300547-05-0005, hsa-mir-330-5p # C-301082-01-0005, negative control # NC-002000-01-05, Dharmacon), using 5 μL of Lipofectamine 2000 (#1668-019, Invitrogen). On day 1, the medium was changed. On day 3, the cells were trypsinized and seeded at 4×10^5 cells per well. On day 4, the cells were transfected again with 50 nM of mimetic of the miRNAs (see day 0). On day 5, the medium was changed. On day 7, the cells were trypsinized and seeded at 4×10^5 cells per well. On day 8, the cells were transfected with 50 nM of mimetic of the miRNAs (see day 0). On day 9, the medium was changed. On day 10, the cells were trypsinized and divided into two (from one by six wells to two by six wells). On day 12, one six-well plate was used for lysis of the RNA and the other for lysis of the proteins. As positive control of depigmentation, MNT-1 cells were incubated with 3.5 mM of kojic acid (Sigma K3125-5G) for 12 days. The cells were distributed as described and the kojic acid was renewed with the medium every 4 days. The percentage inhibition of the kojic acid is of the order of 10%. 700 μL of Qiazol lysis buffer (Qiagen) was added per well of a six-well dish after washing the cells twice with PBS. The total RNA was isolated using the miRNeasy Mini kit (Qiagen) according to the manufacturer's protocol. The total RNA was eluted in 30 μl of water without RNAse. The concentration of RNA was measured using the NanoVue spectrophotometer (GE Healthcare). 1 μg of total RNA was reverse-transcribed using the MLV RT-Enzyme system (Invitrogen) in 60 μL of reaction to produce the corresponding cDNA. […] The concentrations of primers and the sequences are given in Table 5 below: The relative quantity was evaluated using the ΔΔCt comparative method. Briefly, this method compares the quantity of expression of the target gene relative to an endogenous control TBP, within a sample for normalizing the expression. […]

TYR proteins = experiment: Western blot of TYR protein; settings: MNT-1 cells, 50 nM mimetic, day 12
Protocol: (§2) 4×10^5 MNT-1 cells were seeded per well in a 6-well plate (#353046, Falcon) on day-1. On day 0, the cells were transfected with 50 nM of mimetic of the miRNAs (hsa-mir-137 # C-300604-07-005, hsa-mir-7 # C-300547-05-0005, hsa-mir-330-5p # C-301082-01-0005, negative control # NC-002000-01-05, Dharmacon), using 5 μL of Lipofectamine 2000 (#1668-019, Invitrogen). On day 1, the medium was changed. On day 3, the cells were trypsinized and seeded at 4×10^5 cells per well. On day 4, the cells were transfected again with 50 nM of mimetic of the miRNAs (see day 0). On day 5, the medium was changed. On day 7, the cells were trypsinized and seeded at 4×10^5 cells per well. On day 8, the cells were transfected with 50 nM of mimetic of the miRNAs (see day 0). On day 9, the medium was changed. On day 10, the cells were trypsinized and divided into two (from one by six wells to two by six wells). On day 12, one six-well plate was used for lysis of the RNA and the other for lysis of the proteins. As positive control of depigmentation, MNT-1 cells were incubated with 3.5 mM of kojic acid (Sigma K3125-5G) for 12 days. The cells were distributed as described and the kojic acid was renewed with the medium every 4 days. The percentage inhibition of the kojic acid is of the order of 10%. […] The concentration of proteins was determined with the BCA Protein Assay (ThermoFisher). […]

mRNA MLANA = experiment: qRT-PCR mRNA expression of MLANA; settings: MNT-1 cells, 50 nM mimetic, day 12, relative to cel-miR-239b, ΔΔCt
Protocol: as §1

mRNA TYRP1 = experiment: qRT-PCR mRNA expression of TYRP1; settings: MNT-1 cells, 50 nM mimetic, day 12, relative to cel-miR-239b, ΔΔCt
Protocol: as §1

MITF = experiment: Western blot of MITF protein; settings: MNT-1 cells, 50 nM mimetic, day 12
Protocol: as §2

| Substance | levels of mRNA MITF-M (mRNA MITF-M; listed as miR-7) | content of TYR proteins (Western blot) (TYR proteins) | levels of mRNA MLANA (mRNA MLANA; listed as miR-7) | levels of mRNA TYRP1 (mRNA TYRP1; listed as miR-7) | level of protein MITF (Western blot) (MITF) | levels of mRNA MITF-M (mRNA MITF-M) | levels of mRNA MITF-M (mRNA MITF-M; listed as miR-137) | levels of mRNA MLANA (mRNA MLANA) | levels of mRNA MLANA (mRNA MLANA; listed as miR-137) | levels of mRNA TYRP1 (mRNA TYRP1) | levels of mRNA TYRP1 (mRNA TYRP1; listed as miR-137) |
| --- | --- | --- | --- | --- | --- | --- | --- | --- | --- | --- | --- |
| hsa-miR-7: mimetic of miRNA hsa-mir-7 (Dharmacon C-300547-05-0005); mature hsa-miR-7-5p sequence SEQ ID NO: 2 (UGGAAGACUAGUGAUUUUGUUGU; commercial mimic, chemistry not given here; listed as Homo sapiens) | appears to reduce; also recorded: slightly reduced | decreases | appears to reduce; also recorded: slightly reduced | appears to reduce; also recorded: slightly reduced | decreases | – | – | – | – | – | – |
| hsa-miR-137: mimetic of miRNA hsa-mir-137 (Dharmacon C-300604-07-005); mature sequence SEQ ID NO: 3 (UUAUUGCUUAAGAAUACGCGUAG; commercial mimic, chemistry not given here; listed as Homo sapiens) | – | – | – | – | eliminates | significantly reduced | considerably reduced | significantly reduced | considerably reduced | significantly reduced | considerably reduced |
| hsa-miR-330-5p: mimetic of miRNA hsa-mir-330-5p (Dharmacon C-301082-01-0005); mature sequence 5'-UCUCUGGGCCUGUGUCUUAGGC-3' (SEQ ID NO: 1) (UCUCUGGGCCUGUGUCUUAGGC; mimic duplex, passenger strand not given here; listed as Homo sapiens) | – | decreased | – | – | – | – | – | – | – | – | – |
